Like-named read-outs stand apart in the source and are kept apart here.
How the values were obtained:
[1] = molecular target: T1, SARS-CoV-2 nsp3-mac1 (Severe acute respiratory syndrome coronavirus 2, UniProt P0DTD1); assay: biochemical; set-up: SARS-CoV-2 nsp3 macrodomain TR-FRET single point, per cent inhibition, n=2
[2] = molecular target: T1, SARS-CoV-2 nsp3-mac1; assay: biochemical; format: biochemical; conditions: SARS-CoV-2 nsp3 macrodomain TR-FRET single point
[3] = read-out: perc_inhibition_mean, batch_name=ASAP-0000356-001
[4] = read-out: perc_inhibition_mean, batch_name=ASAP-0000293-001
[5] = read-out: perc_inhibition_mean, batch_name=ASAP-0000283-001
[6] = read-out: perc_inhibition_mean, batch_name=ASAP-0000294-001
[7] = read-out: perc_inhibition_mean, batch_name=ASAP-0000263-001
[8] = read-out: perc_inhibition_mean, batch_name=ASAP-0000335-001
[9] = read-out: perc_inhibition_mean, batch_name=ASAP-0000277-001
[10] = read-out: perc_inhibition_mean, batch_name=ASAP-0000318-001
[11] = read-out: perc_inhibition_mean, batch_name=ASAP-0000347-001
[12] = read-out: perc_inhibition_mean, batch_name=ASAP-0000419-001
[13] = read-out: perc_inhibition_mean, batch_name=ASAP-0000352-001
[14] = read-out: perc_inhibition_mean, batch_name=ASAP-0000405-001
[15] = read-out: perc_inhibition_mean, batch_name=ASAP-0000247-001
[16] = read-out: perc_inhibition_mean, batch_name=ASAP-0000349-001
[17] = read-out: perc_inhibition_mean, batch_name=ASAP-0000391-001
[18] = read-out: perc_inhibition_mean, batch_name=ASAP-0000463-001
[19] = read-out: perc_inhibition_mean, batch_name=ASAP-0000387-001
[20] = read-out: perc_inhibition_mean, batch_name=ASAP-0000422-001

O=S(=O)(NC[C@@H]1CCCCO1)c1cn2c(n1)CCCC2 [ASAP-0000105]
inhibition at 50 µM ([1]; read-out: perc_inhibition_mean, batch_name=ASAP-0000105-001): -5.39% | perc_inhibition_mean ([2]; concentration 50.0 uM): -5.386%

NC1(C(=O)N(CCC(=O)N2CCNCC2)Cc2cccc(Cl)c2)CC(F)(F)C1 [ASAP-0000356]
inhibition at 49.75 µM [1, 3]: -3.48% | inhibition at 99.5 µM [1, 3]: -1.17% | perc_inhibition_mean ([2]; concentration 49.75 uM): -3.48% | perc_inhibition_mean ([2]; concentration 99.5 uM): -1.174%

O=C(OCc1ncccc1Cl)c1ncnc2[nH]ccc12 [ASAP-0000120]
inhibition at 50 µM ([1]; read-out: perc_inhibition_mean, batch_name=ASAP-0000120-001): 5.06% | perc_inhibition_mean ([2]; concentration 50.0 uM): 5.063%

CN1CCO[C@H](CNC(=O)c2ccc(NC(=O)Nc3ccccc3)cc2)C1 [ASAP-0000293]
inhibition at 49.75 µM [1, 4]: -0.616% | inhibition at 99.5 µM [1, 4]: 3.27% | perc_inhibition_mean ([2]; concentration 49.75 uM, n=2): -0.616% | perc_inhibition_mean ([2]; concentration 99.5 uM, n=2): 3.272%

Cc1n[nH]nc1C(=O)N1CCC(c2ccn3ncc(C(=O)N4CCCCC4)c3c2)CC1 [ASAP-0000283]
inhibition at 49.75 µM [1, 5]: 29.3% | inhibition at 99.5 µM [1, 5]: 45.8% | perc_inhibition_mean ([2]; concentration 49.75 uM, n=2): 29.33% | perc_inhibition_mean ([2]; concentration 99.5 uM, n=2): 45.786%

Cc1nn(Cc2ccccc2)c(C)c1CNc1ncnc2[nH]ncc12 [ASAP-0000084]
inhibition at 50 µM ([1]; read-out: perc_inhibition_mean, batch_name=ASAP-0000084-001): -1.75% | perc_inhibition_mean ([2]; concentration 50.0 uM): -1.755%

Nc1ncnc2c1ncn2Cc1cccc2ncnn12 [ASAP-0000294]
inhibition at 49.75 µM [1, 6]: -0.553% | inhibition at 99.5 µM [1, 6]: -3.16% | perc_inhibition_mean ([2]; concentration 49.75 uM, n=2): -0.553% | perc_inhibition_mean ([2]; concentration 99.5 uM, n=2): -3.161%

Cc1[nH]c2ncnc(NCc3ccco3)c2c1C [ASAP-0000263]
inhibition at 50 µM [1, 7]: 17% | inhibition at 100 µM [1, 7]: 37.5% | perc_inhibition_mean ([2]; concentration 50.0 uM, n=2): 16.967% | perc_inhibition_mean ([2]; concentration 100.0 uM, n=2): 37.474%

C[C@@H](CO)Nc1ncnc2[nH]c(C(=O)OC(C)(C)C)cc12 [ASAP-0000076]
inhibition at 50 µM ([1]; read-out: perc_inhibition_mean, batch_name=ASAP-0000076-001): 10.7% | perc_inhibition_mean ([2]; concentration 50.0 uM): 10.712%

CS(=O)(=O)N1CC[C@@H](COC(=O)c2ncnc3[nH]ccc23)C1 [ASAP-0000040]
inhibition at 50 µM ([1]; read-out: perc_inhibition_mean, batch_name=ASAP-0000040-001): 0.187% | perc_inhibition_mean ([2]; concentration 50.0 uM): 0.187%

CCn1cc(CNc2nc3[nH]cnc3c(=O)[nH]2)nn1 [ASAP-0000127]
inhibition at 50 µM ([1]; read-out: perc_inhibition_mean, batch_name=ASAP-0000127-001): -0.991% | perc_inhibition_mean ([2]; concentration 50.0 uM): -0.991%

O=C(CCN(Cc1cccc(Cl)c1)C(=O)c1ccc(F)cn1)N1CCNCC1 [ASAP-0000335]
inhibition at 49.75 µM [1, 8]: 6.76% | inhibition at 99.5 µM [1, 8]: 6.74% | perc_inhibition_mean ([2]; concentration 49.75 uM, n=2): 6.758% | perc_inhibition_mean ([2]; concentration 99.5 uM, n=2): 6.737%

Cc1ncc(NCc2cnc3c(c2)NC(=O)CO3)cc1Cl [ASAP-0000195]
inhibition at 50 µM ([1]; read-out: perc_inhibition_mean, batch_name=ASAP-0000195-001): -0.368% | perc_inhibition_mean ([2]; concentration 50.0 uM): -0.368%

COCc1cc(CNc2cc3c(O)ncnc3cn2)no1 [ASAP-0000202]
inhibition at 50 µM ([1]; read-out: perc_inhibition_mean, batch_name=ASAP-0000202-001): 3.31% | perc_inhibition_mean ([2]; concentration 50.0 uM): 3.308%

Cn1nc(NCc2cc3c(=O)[nH]ccc3o2)c2nccnc21 [ASAP-0000095]
inhibition at 50 µM ([1]; read-out: perc_inhibition_mean, batch_name=ASAP-0000095-001): -1.01% | perc_inhibition_mean ([2]; concentration 50.0 uM): -1.007%

Cn1c(C(=O)NCCNC(=O)c2ccco2)cc2c(=O)n3ccccc3nc21 [ASAP-0000126]
inhibition at 50 µM ([1]; read-out: perc_inhibition_mean, batch_name=ASAP-0000126-001): -4.47% | perc_inhibition_mean ([2]; concentration 50.0 uM): -4.472%

O=C(Nc1cnc2[nH]ncc2c1)C1CCN(c2ccc3nncn3n2)CC1 [ASAP-0000016]
inhibition at 50 µM ([1]; read-out: perc_inhibition_mean, batch_name=ASAP-0000016-001): 17% | perc_inhibition_mean ([2]; concentration 50.0 uM): 16.966%

CN(Cc1cn(C)nn1)C(=O)c1cnn2ccc(C3CCN(C(=O)c4ccccc4)CC3)cc12 [ASAP-0000277]
inhibition at 49.75 µM [1, 9]: 2.17% | inhibition at 99.5 µM [1, 9]: 1.34% | perc_inhibition_mean ([2]; concentration 49.75 uM, n=2): 2.174% | perc_inhibition_mean ([2]; concentration 99.5 uM, n=2): 1.337%

CNC(=O)c1cccc(CNC(=O)c2ncnc3[nH]ccc23)c1 [ASAP-0000019]
inhibition at 50 µM ([1]; read-out: perc_inhibition_mean, batch_name=ASAP-0000019-001): -5.91% | perc_inhibition_mean ([2]; concentration 50.0 uM): -5.906%

O=C(CCN(Cc1cccc(Cl)c1)C(=O)c1c[nH]c(=O)cn1)N1CCNCC1 [ASAP-0000318]
inhibition at 49.75 µM [1, 10]: -2.71% | inhibition at 99.5 µM [1, 10]: 0.98% | perc_inhibition_mean ([2]; concentration 49.75 uM, n=2): -2.705% | perc_inhibition_mean ([2]; concentration 99.5 uM, n=2): 0.98%

O=C(N[C@@H]1CCCNC1=O)c1cnn2ccc(C3CCN(C(=O)c4ccccc4)CC3)cc12 [ASAP-0000347]
inhibition at 49.75 µM [1, 11]: -3.16% | inhibition at 99.5 µM [1, 11]: -4.87% | perc_inhibition_mean ([2]; concentration 49.75 uM, n=2): -3.161% | perc_inhibition_mean ([2]; concentration 99.5 uM, n=2): -4.869%

O=C(c1nc(=O)[nH][nH]1)N1CCC(c2ccn3ncc(C(=O)N4CCCCC4)c3c2)CC1 [ASAP-0000419]
inhibition at 49.75 µM [1, 12]: 23.4% | inhibition at 99.5 µM [1, 12]: 34.6% | perc_inhibition_mean ([2]; concentration 49.75 uM): 23.445% | perc_inhibition_mean ([2]; concentration 99.5 uM): 34.579%

O=C(NCCn1cncn1)c1cnn2ccc(C3CCN(C(=O)c4ccccc4)CC3)cc12 [ASAP-0000352]
inhibition at 49.75 µM [1, 13]: -3.7% | inhibition at 99.5 µM [1, 13]: -2.57% | perc_inhibition_mean ([2]; concentration 49.75 uM): -3.7% | perc_inhibition_mean ([2]; concentration 99.5 uM, n=2): -2.566%

O=C(c1ccncc1)N1CCC(c2ccn3ncc(C(=O)N4CCCCC4)c3c2)CC1 [ASAP-0000405]
inhibition at 49.75 µM [1, 14]: 10.9% | inhibition at 99.5 µM [1, 14]: 26.5% | perc_inhibition_mean ([2]; concentration 49.75 uM): 10.851% | perc_inhibition_mean ([2]; concentration 99.5 uM): 26.497%

CO[C@@H](CNc1ncnc2[nH]ccc12)c1cccc(Cl)c1 [ASAP-0000247]
inhibition at 50 µM [1, 15]: 4.1% | inhibition at 100 µM [1, 15]: 14.2% | perc_inhibition_mean ([2]; concentration 50.0 uM): 4.096% | perc_inhibition_mean ([2]; concentration 100.0 uM): 14.175%

CN1CCC[C@@H]1CNC(=O)c1cnn2ccc(C3CCN(C(=O)c4ccccc4)CC3)cc12 [ASAP-0000349]
inhibition at 49.75 µM [1, 16]: -4.43% | inhibition at 99.5 µM [1, 16]: 1.5% | perc_inhibition_mean ([2]; concentration 49.75 uM, n=2): -4.432% | perc_inhibition_mean ([2]; concentration 99.5 uM, n=2): 1.495%

O=C(Nc1nc2ccc(F)cc2[nH]1)c1cc(N2CCNC2=O)ccc1F [ASAP-0000067]
inhibition at 50 µM ([1]; read-out: perc_inhibition_mean, batch_name=ASAP-0000067-001): -7.71% | perc_inhibition_mean ([2]; concentration 50.0 uM): -7.707%

CN1CCO[C@@H](CNC(=O)c2cnn3ccc(C4CCN(C(=O)c5ccccc5)CC4)cc23)C1 [ASAP-0000391]
inhibition at 49.75 µM [1, 17]: -12% | inhibition at 99.5 µM [1, 17]: -11.5% | perc_inhibition_mean ([2]; concentration 49.75 uM): -12.021% | perc_inhibition_mean ([2]; concentration 99.5 uM): -11.503%

Cn1cc([C@@H](Nc2ncnc3[nH]ccc23)C2CCC2)cn1 [ASAP-0000463]
inhibition at 49.75 µM [1, 18]: 78.1% | inhibition at 99.5 µM [1, 18]: 91% | perc_inhibition_mean ([2]; concentration 49.75 uM): 78.069% | perc_inhibition_mean ([2]; concentration 99.5 uM): 91.032%

Cc1cc(C(=O)N2CCC(c3ccn4ncc(C(=O)N5CCCCC5)c4c3)CC2)[nH]n1 [ASAP-0000387]
inhibition at 49.75 µM [1, 19]: 16.6% | inhibition at 99.5 µM [1, 19]: 31.6% | perc_inhibition_mean ([2]; concentration 49.75 uM): 16.559% | perc_inhibition_mean ([2]; concentration 99.5 uM): 31.572%

O=C(c1ccc(O)nc1)N1CCC(c2ccn3ncc(C(=O)N4CCCCC4)c3c2)CC1 [ASAP-0000422]
inhibition at 49.75 µM [1, 20]: 11% | inhibition at 99.5 µM [1, 20]: 26.5% | perc_inhibition_mean ([2]; concentration 49.75 uM): 10.998% | perc_inhibition_mean ([2]; concentration 99.5 uM): 26.485%

c1ccc(Cn2ncc3c2CCC[C@@H]3Nc2ncnc3[nH]ccc23)cc1 [ASAP-0000074]
inhibition at 50 µM ([1]; read-out: perc_inhibition_mean, batch_name=ASAP-0000074-001): 5.85% | perc_inhibition_mean ([2]; concentration 50.0 uM): 5.848%

COc1ccc(Nc2ncnc3[nH]ncc23)c(OC)c1 [ASAP-0000086]
inhibition at 50 µM ([1]; read-out: perc_inhibition_mean, batch_name=ASAP-0000086-001): 2.6% | perc_inhibition_mean ([2]; concentration 50.0 uM): 2.597%
